Earlier results in patent US5043321A, “Adrenocorticotropin release inhibiting factor” (Center for Innovative Technology, priority 1988, dated 1991).
No end group written: not given here.

Legend:
[1] = system: hemorrhage induced corticosterone secretion; conditions: Hattori et al
[2] = system: rat anterior pituitary gland; conditions: Okajima et al

Substance | effect on hemorrhage induced corticosterone secretion in vivo [1] | effect on plasma ACTH ([1]; preliminary study) | most effective concentration for inhibition of ACTH secretion [2] [nM] | effect on CRF induced ACTH secretion ([2]; rat anterior pituitary gland in vitro)
alpha-hANP: alpha-hANP (presumably ANF[1-28]) used by Hattori et al (SLRRSSCFGGRMDRIGAQSGLGCNSFRY; ends and bridges not checked; cysteine pairing not given here; UniProt P01160 124-151, looked up) | no effect | inhibition of plasma ACTH that was not dose dependent | – | –
delta sleep inducing peptide [DSIP] | – | – | 10 | inhibits CRF induced ACTH secretion
